# According to PubChem BioAssay AID328 (DTP/NCI, 2004):
# Values joined by “and” are separate entries in the source; they are usually repeats but may differ in a detail not shown here. Equal values may be shown once. Toxic doses and inconclusive results are not listed.
# Tested on: BDF1 mice, P388 leukemia ip, median survival T/C
# Assay: NCI In Vivo Anticancer Drug Screen. Data for tumor model P388 Leukemia (intraperitoneal) in B6D2F1 (BDF1) mice
# Details: endpoint: median survival time, higher = longer survival
# Summary of the method: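 In tumour-bearing mice, survival after compound treatment is set against the vehicle group and given as a quotient.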
# [1] = dose: 100.0 mg/kg/injection, schedule: Q04DX003 (ip), vehicle: saline with Tween-80
# [2] = dose: 200.0 mg/kg/injection, schedule: Q04DX003 (ip), vehicle: saline with Tween-80
# [3] = dose: 400.0 mg/kg/injection, schedule: Q04DX003 (ip), vehicle: saline with Tween-80
# [4] = dose: 50.0 mg/kg/injection, schedule: Q01DX009 (ip), vehicle: saline with Tween-80
# [5] = dose: 100.0 mg/kg/injection, schedule: Q01DX009 (ip), vehicle: saline with Tween-80
# [6] = dose: 200.0 mg/kg/injection, schedule: Q01DX009 (ip), vehicle: saline with Tween-80
# [7] = dose: 100.0 mg/kg/injection, schedule: Q04DX003 (ip), vehicle: saline
# [8] = dose: 25.0 mg/kg/injection, schedule: Q01DX009 (ip), vehicle: saline
# [9] = dose: 25.0 mg/kg/injection, schedule: Q04DX003 (ip), vehicle: saline
# [10] = dose: 50.0 mg/kg/injection, schedule: Q01DX009 (ip), vehicle: saline
# [11] = dose: 50.0 mg/kg/injection, schedule: Q04DX003 (ip), vehicle: saline
# [12] = dose: 50.0 mg/kg/injection, schedule: Q04DX003 (ip), vehicle: saline with Tween-80
# [13] = dose: 100.0 mg/kg/injection, schedule: Q01DX009 (ip), vehicle: saline
# [14] = dose: 400.0 mg/kg/injection, schedule: Q01DX009 (ip), vehicle: saline with Tween-80
smiles,measurement,setting,value
COc1cc2c(cc1OC(C)=O)C(=O)CCCC2,T/C,[1],89 % of control
same,T/C,[2],103 % of control
same,T/C,[3],99 % of control
CN(C)c1ccc(S(=O)(=O)c2ccc3nc(N)nc(N)c3c2)cc1,T/C,[4],97 % of control
same,T/C,[5],91 % of control
same,T/C,[6],88 % of control
Cc1cc2c3ccccc3ncn2n1,T/C,"dose: 100.0 mg/kg/injection, schedule: Q01DX001 (ip), vehicle: saline",100 % of control
same,T/C,"dose: 100.0 mg/kg/injection, schedule: Q01DX009 (ip), vehicle: Klucel (hydroxypropylcellulose) (HPC)",100 % of control
same,T/C,[7],100 % of control
same,T/C,"dose: 200.0 mg/kg/injection, schedule: Q01DX001 (ip), vehicle: saline",108 % of control
same,T/C,"dose: 200.0 mg/kg/injection, schedule: Q01DX009 (ip), vehicle: Klucel (hydroxypropylcellulose) (HPC)",108 % of control
same,T/C,"dose: 200.0 mg/kg/injection, schedule: Q04DX003 (ip), vehicle: saline",100 % of control
same,T/C,"dose: 400.0 mg/kg/injection, schedule: Q04DX003 (ip), vehicle: saline",100 % of control
Cc1cc([N+](=O)[O-])cc(C)c1OC(=O)c1ccc(N=C(N)N)cc1,T/C,"dose: 6.25 mg/kg/injection, schedule: Q01DX009 (ip), vehicle: saline",93 % of control
same,T/C,"dose: 12.5 mg/kg/injection, schedule: Q01DX009 (ip), vehicle: saline",101 % of control
same,T/C,"dose: 12.5 mg/kg/injection, schedule: Q04DX003 (ip), vehicle: saline",104 % of control
same,T/C,[8],97 % of control
same,T/C,[9],102 % of control
same,T/C,[10],95 % of control
same,T/C,[11],101 % of control
same,T/C,[7],95 % of control
CC(=O)OCC(OC(C)=O)C(OC(C)=O)C(OC(C)=O)C(C#N)OC(C)=O (stereo not given),T/C,"dose: 75.0 mg/kg/injection, schedule: Q01DX009 (ip), vehicle: saline with Tween-80",100 % of control
same,T/C,[5],105 % of control
same,T/C,[1],100 % of control
same,T/C,"dose: 150.0 mg/kg/injection, schedule: Q01DX009 (ip), vehicle: saline with Tween-80",100 % of control
same,T/C,[6],120 % of control
same,T/C,[2],100 % of control
same,T/C,[3],100 % of control
CC(C(=O)O)c1ccc2c(c1)[nH]c1ccc(Cl)cc12 (stereo not given),T/C,[5],89 % of control
same,T/C,[6],91 % of control
N#CC1C(=O)NC(=O)C(C#N)C12CCCCC2 (stereo not given),T/C,"dose: 50.0 mg/kg/injection, schedule: Q01DX005 (ip), vehicle: saline with Tween-80",100 % of control
same,T/C,[12],110 % of control
same,T/C,"dose: 100.0 mg/kg/injection, schedule: Q01DX005 (ip), vehicle: saline with Tween-80",100 % of control
same,T/C,[1],120 % of control
same,T/C,"dose: 200.0 mg/kg/injection, schedule: Q01DX005 (ip), vehicle: saline with Tween-80",109 % of control
same,T/C,[2],105 % of control
NOCc1csc(N)n1,T/C,"dose: 75.0 mg/kg/injection, schedule: Q04DX003 (ip), vehicle: saline",91 % of control
same,T/C,"dose: 300.0 mg/kg/injection, schedule: Q04DX003 (ip), vehicle: saline",87 % of control
C[As](C)SCC1OC2OC(C)(C)OC2C2OC(C)(C)OC12 (stereo not given),T/C,[4],110 % of control and 123 % of control
CNC(=S)N/N=C\C(=N/NC(=S)NC)c1ccco1,T/C,"dose: 15.0 mg/kg/injection, schedule: Q01DX009 (ip), vehicle: saline with Tween-80",100 % of control
same,T/C,"dose: 30.0 mg/kg/injection, schedule: Q01DX009 (ip), vehicle: saline with Tween-80",98 % of control
Cc1cccc(NC(=O)Nc2ccc(Oc3ccccc3Cl)c(S(=O)(=O)O)c2)c1,T/C,[8],90 % of control
same,T/C,[10],90 % of control
same,T/C,[13],90 % of control
Cn1c(N)c(N=Cc2ccc(Cl)cc2)c(=O)n(C)c1=O,T/C,[1],92 % of control
same,T/C,[2],99 % of control
c1ccc2c(c1)C1=NCCN1c1ccccc1-2,T/C,"dose: 5.3 mg/kg/injection, schedule: Q01DX009 (ip), vehicle: Klucel (hydroxypropylcellulose) (HPC)",86 % of control
same,T/C,"dose: 8.0 mg/kg/injection, schedule: Q01DX009 (ip), vehicle: Klucel (hydroxypropylcellulose) (HPC)",86 % of control
same,T/C,"dose: 10.0 mg/kg/injection, schedule: Q01DX009 (ip), vehicle: Klucel (hydroxypropylcellulose) (HPC)",115 % of control
same,T/C,"dose: 12.0 mg/kg/injection, schedule: Q01DX009 (ip), vehicle: Klucel (hydroxypropylcellulose) (HPC)",95 % of control
same,T/C,"dose: 17.7 mg/kg/injection, schedule: Q01DX009 (ip), vehicle: Klucel (hydroxypropylcellulose) (HPC)",108 % of control
same,T/C,"dose: 20.0 mg/kg/injection, schedule: Q01DX009 (ip), vehicle: Klucel (hydroxypropylcellulose) (HPC)",110 % of control
same,T/C,"dose: 40.0 mg/kg/injection, schedule: Q01DX009 (ip), vehicle: Klucel (hydroxypropylcellulose) (HPC)",150 % of control
Cc1c(Cl)cccc1NC(=O)Nc1ccccc1,T/C,"dose: 100.0 mg/kg/injection, schedule: Q04DX003 (ip), vehicle: DMSO",103 % of control
same,T/C,"dose: 200.0 mg/kg/injection, schedule: Q04DX003 (ip), vehicle: DMSO",100 % of control
same,T/C,"dose: 400.0 mg/kg/injection, schedule: Q04DX003 (ip), vehicle: DMSO",107 % of control
COc1ccc(C(=O)CC(C#N)c2ccc3c(c2)OCO3)cc1OC (stereo not given),T/C,[5],90 % of control
same,T/C,[6],100 % of control
same,T/C,[14],95 % of control
CCCN(CCC)CCC#N,T/C,[12],104 % of control
same,T/C,[1],100 % of control
same,T/C,[2],90 % of control
COc1ccc2c(c1)CCNC2CCO (stereo not given),T/C,[9],120 % of control
same,T/C,[11],110 % of control
same,T/C,[7],120 % of control
COc1cccc(CCNC(=O)CC#N)c1,T/C,[5],100 % of control
same,T/C,[1],110 % of control
same,T/C,[6],110 % of control
same,T/C,[2],100 % of control
same,T/C,[14],100 % of control
same,T/C,[3],100 % of control
O=C(O)C1C2CCCCC21 (stereo not given),T/C,[5],109 % of control
same,T/C,[13],113 % of control
same,T/C,[6],100 % of control
same,T/C,"dose: 200.0 mg/kg/injection, schedule: Q01DX009 (ip), vehicle: saline",109 % of control
same,T/C,[14],95 % of control
same,T/C,"dose: 400.0 mg/kg/injection, schedule: Q01DX009 (ip), vehicle: saline",104 % of control
CC1=CC(=O)NC1=O,T/C,"dose: 4.3 mg/kg/injection, schedule: Q01DX009 (ip), vehicle: saline",114 % of control
same,T/C,"dose: 6.4 mg/kg/injection, schedule: Q01DX009 (ip), vehicle: saline",102 % of control
same,T/C,"dose: 9.6 mg/kg/injection, schedule: Q01DX009 (ip), vehicle: saline",117 % of control
same,T/C,"dose: 14.0 mg/kg/injection, schedule: Q01DX009 (ip), vehicle: saline",123 % of control
CN(C)c1cc2nc[nH]c(=O)c2cc1[N+](=O)[O-],T/C,"dose: 100.0 mg/kg/injection, schedule: Q04DX003 (ip), vehicle: Klucel (hydroxypropylcellulose) (HPC)",116 % of control
Nc1[nH]c(=S)[nH]c(=O)c1N,T/C,"dose: 75.0 mg/kg/injection, schedule: Q01DX009 (ip), vehicle: Klucel (hydroxypropylcellulose) (HPC)",115 % of control
same,T/C,"dose: 100.0 mg/kg/injection, schedule: Q01DX001 (ip), vehicle: Klucel (hydroxypropylcellulose) (HPC)",95 % of control
same,T/C,"dose: 200.0 mg/kg/injection, schedule: Q01DX001 (ip), vehicle: Klucel (hydroxypropylcellulose) (HPC)",95 % of control
